Reference: patent US11834698B2, “Process for determining enzyme activity in a cell by activity-based reporter gene technology (ABRGT)” (INDIAN INSTITUTE OF SCIENCE EDUCATION AND RESEARCH, priority 2018, dated 2023)
Peptide text beside a SMILES is read from it. * marks the point of attachment. Cbz = O=C(OCc1ccccc1)*; CH2F = FC*

How the values were obtained:
[1] = molecular target: T1, caspase-9 GFPspark (Homo sapiens, UniProt P55211); assay: AbRGT FRET imaging / acceptor photobleaching, caspase-9 GFPspark in MCF-7 cells; type: cell-based
T1 construct: host or cells: MCF-7, HEK-293
T1 sequence (P55211 1-416): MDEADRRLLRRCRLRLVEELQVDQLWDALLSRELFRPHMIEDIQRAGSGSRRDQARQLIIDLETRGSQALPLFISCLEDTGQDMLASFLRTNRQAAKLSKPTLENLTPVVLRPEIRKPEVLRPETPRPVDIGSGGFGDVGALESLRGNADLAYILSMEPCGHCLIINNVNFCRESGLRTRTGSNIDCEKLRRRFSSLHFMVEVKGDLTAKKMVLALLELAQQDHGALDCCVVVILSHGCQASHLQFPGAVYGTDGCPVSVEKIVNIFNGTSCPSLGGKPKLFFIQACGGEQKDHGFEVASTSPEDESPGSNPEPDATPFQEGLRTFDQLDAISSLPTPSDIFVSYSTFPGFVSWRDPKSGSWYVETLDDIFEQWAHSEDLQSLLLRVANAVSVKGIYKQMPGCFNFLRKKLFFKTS
Description: FIG. 15 depicts confocal images of MCF-7 cells in GFP, FRET and Rh channel Caspase-7 GFPspark transfected MCF-7 cells were treated with STS (1 μM) for 6 h and labelled (a) (i) with probe 1 (1 μM) probe. Cells were pre-treated with (a) (ii) Z-VAD-FMK (50 μM) or (a) (iii) Q-VD-OPh (50 μM) pan-caspase inhibitors 1 h before the probe labelling. Caspase-9 GFPspark transfected MCF-7 cells were treated with STS (1 μM) for 4 h and labelled (b) (i) with probe 1 (1 μM) probe. Cells were pre-treated with (b) (ii) Z-VAD-FMK (50 μM) 1 h before probe labelling. Caspase-8 GFPspark overexpressing HEK-293 cells were treated with TRAIL (1 μg/ml) for 5 h and labelled (c) (i) with the probe 1. Cells were pre-treated with (c) (ii) Z-VAD-FMK (50 μM) 1 h before probe labelling.
FIG. 16 depicts specific detection of caspase-9 GFPspark in MCF-7 cells. Casp-9 GFPspark (1 μg) transfected MCF-7 cells were treated with STS (1 μM) for 4 h and labelled with the probe 1 (1 μM). Cells were fixed and the fluorescence signal was collected in GFP, FRET and Rh channels. The acceptor photobleaching experiment was carried out to confirm the FRET signal as described previously. Bar graph representing a rise in GFP intensity in ROI after rhodamine photobleaching was 63 a.u. as compared to the unbleached background, i.e., 8 a.u. FRET efficiency was calculated to be 30±1%.
(§1) Plasmids and transient transfection: GFPspark tagged plasmids; caspase-3 GFPspark tag (Cat: HG10050-ACG), caspase-7 GFPspark tag (HG10049-ACG), caspase-8 GFPspark (HG10078-ACG), caspase-9 GFPspark (HG11151-ACG) and cathepsin B GFPspark (HG10483-ACG) were procured from Sino Biological. For transfection, cells were seeded in a 6-well plate at a density of 0.4 million cells/well. At 60-70% confluency, cells were transiently transfected for 24 h at 37° C. with 1 μg of the GFPspark tagged plasmid DNA construct mixed with 5 μL of Lipofectamine 2000 (Invitrogen) according to the manufacturer's instructions. 24 h post-transfection, cells were visualized under the GFP filter for GFPspark expression under fluorescence microscope at 10× magnification.
(§2) Labelling of active caspases in apoptotic cells with FABP: After 24 h of transfection, cells were treated with STS (1 μM) drug or TRAIL (1 μg/ml) for apoptotic induction and incubated for 2, 4, 6 and 8 h at 37° C. in a humidified atmosphere of 5% CO2/95% air. Cells were gently scraped off from the surface at the end of apoptotic induction and centrifuged at 3000 rpm for 5 min. […] Slides were then imaged for GFP, FRET and rhodamine fluorescence signals under confocal microscopy. […]
Fluorescence imaging studies, FRET procedure: Images were collected on Zeiss LSM710 confocal microscope with 25 mW argon laser using Zen10 software. […]

[2] = molecular target: T1, caspase-9 GFPspark; assay: AbRGT FRET imaging / acceptor photobleaching, caspase-9 GFPspark in HEK-293 cells; type: cell-based
Description: FIGS. 17A and 17B depict specific detection of caspase-9 GFPspark in HEK-293 cells. Casp-9 GFPspark (1 μg) transfected HEK-293 cells were treated with STS (1 μM) for 4 h and labelled with the probe 1 (1 μM) for 2 h. […] The acceptor photobleaching was performed to confirm the FRET signal as described previously. The bar graph representing the rise in GFP intensity in ROI after rhodamine photobleaching was 75 a.u. as compared to the unbleached background, i.e., 10 a.u. FRET efficiency was calculated to be 35±2%.
as §1, with “At 60-70% confluency, cells were transiently transfected for 24 h at 37° C. with 1 μg of the GFPspark tagged plasmid DNA construct mixed with 5 μL of Lipofectamine 2000 (Invitrogen) according to the manufacturer's instructions.” left out
as §2, with “air.” for “air. Cells were gently scraped off from the surface at the end of apoptotic induction and centrifuged at 3000 rpm for 5 min.”
Fluorescence imaging studies, FRET procedure: Images were collected on Zeiss LSM710 confocal microscope with 25 mW argon laser using Zen10 software. […] Images were collected in the three channels; GFP channel, argon laser tuned at 488 nm with 2% laser intensity and fluorescence emission was collected in emission range of 490-550 nm; rhodamine channel, argon laser tuned to 561 nm laser with 2% laser intensity and fluorescence emission was collected in range 550-650 nm and FRET channel with excitation laser of GFPSPARK channel and emission range of rhodamine channel. […]

[3] = MCF-7, STS 1 μM 4 h, probe 1 μM
[4] = HEK-293, STS 1 μM 4 h, probe 1 μM 2 h
[5] = MCF-7, inhibitor 50 μM, STS 4 h

| effect of inhibitor on signal in FRET channel [1, 5] | effect of inhibitor on signal in Rh channel [1, 5] | effect of inhibitor on FRET signal ([2]; HEK-293, inhibitor 50 μM pre-treatment, STS 4 h) | Compound | calculated FRET efficiency [1, 3] | rise in GFP intensity in ROI after rhodamine photobleaching [1, 3] | calculated FRET efficiency [2, 4] | rise in GFP intensity in ROI after rhodamine photobleaching [2, 4] |
| --- | --- | --- | --- | --- | --- | --- | --- |
| – | – | – | Rhodamine-VAD-fluoromethyl ketone [probe 1] | 30±1% | 63 a.u. | 35±2% | 75 a.u. |
| completely abolished | completely abolished | abolished | COC(=O)C[C@H](NC(=O)[C@H](C)NC(=O)[C@@H](NC(=O)OCc1ccccc1)C(C)C)C(=O)CF [Z-VAD-FMK] (Cbz-Val-Ala-Asp(OMe)-CH2F) | – | – | – | – |
